Laboratory results reported in patent US20240336611A1 (Insilico Medicine IP Limited, priority 2021, published 2024).

What was measured:
[1] = biological target: T1, TNIK kinase [amino acid sequence (1-367), Invitrogen] (Homo sapiens, UniProt Q9UKE5); experiment: TNIK kinase inhibition assay (Z-lyte FRET-peptide); assay type: biochemical; details: 0.625 nM TNIK kinase, 2 μM Ser/Thr 7 peptide, 64 μM ATP, one hour at room temperature
T1 construct: purchased Invitrogen

[2] = Metabolic stability in human liver microsomes; assay type: in vitro ADME; details: LM Clint (intrinsic clearance); 1 μM test compound, 0.5 mg protein/mL microsome, 37° C., up to 60 min

T1 sequence (Q9UKE5 1-367): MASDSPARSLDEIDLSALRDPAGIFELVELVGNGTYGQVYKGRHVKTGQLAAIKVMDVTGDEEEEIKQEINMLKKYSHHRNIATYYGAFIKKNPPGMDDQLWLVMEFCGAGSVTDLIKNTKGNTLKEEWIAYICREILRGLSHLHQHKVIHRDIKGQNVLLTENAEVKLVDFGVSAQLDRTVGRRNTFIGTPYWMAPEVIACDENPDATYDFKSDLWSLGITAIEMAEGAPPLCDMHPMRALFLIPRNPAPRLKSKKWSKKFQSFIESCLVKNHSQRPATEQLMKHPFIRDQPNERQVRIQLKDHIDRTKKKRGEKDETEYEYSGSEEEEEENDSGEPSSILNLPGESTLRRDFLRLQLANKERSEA

Q: With `[2H]C([2H])([2H])N1CCN(c2ccc(NC(=O)c3c[nH]c(-c4c(-c5ccc(F)cc5)ncn4C(C)C)n3)nc2)CC1` [Compound 124, 2-[5-(4-fluorophenyl)-3-isopropyl-imidazol-4-yl]-N-[5-[4 (trideuteriomethyl)piperazin-1-yl]-2-pyridyl]-1H-imidazole-4-carboxamide] as the molecule, how does the IC50 [1] read?
A: 1 to 12 nM

Q: And the “Human Liver Microsome (μM/min/mg)” value [2]?
A: ++ (10-100 μM/min/mg as ++)

Q: Which IC50 [1] does the source give for `[2H]C([2H])([2H])N1CCN(c2ccc(NC(=O)c3c[nH]c(-c4c(-c5ccc(F)cc5)ncn4C([2H])(C)C)n3)nc2)CC1` [Compound 125, 2-[3-(1-deuterio-1-methyl-ethyl)-5-(4-fluorophenyl)imidazol-4-yl]-N-[5-[4-(trideuteriomethyl)piperazin-1-yl]-2-pyridyl]-1H-imidazole-4-carboxamide] here?
A: 1 to 12 nM

Q: What about the “Human Liver Microsome (μM/min/mg)” value [2] of the same molecule?
A: ++ (10-100 μM/min/mg as ++)

Q: Which results are given for `[2H]C([2H])([2H])N1CCN(c2ccc(NC(=O)c3c[nH]c(-c4c(-c5ccc(F)cc5)ncn4C(C)C)n3)c(F)c2)CC1` [Compound 126, 2-[5-(4-fluorophenyl)-3-isopropyl-imidazol-4-yl]-N-[2-fluoro-4-[4-(trideuteriomethyl)piperazin-1-yl]phenyl]-1H-imidazole-4-carboxamide]?
A: IC50 [1]: 1 to 12 nM; Human Liver Microsome (μM/min/mg) [2]: ++ (10-100 μM/min/mg as ++)

Q: For `[2H]C([2H])([2H])N1CCN(c2ccc(NC(=O)c3c[nH]c(-c4c(-c5ccc(F)cc5)ncn4C([2H])(C)C)n3)c(F)c2)CC1` [Compound 127, 2-[3-(1-deuterio-1-methyl-ethyl)-5-(4-fluorophenyl)imidazol-4-yl]-N-[2-fluoro-4-[4-(trideuteriomethyl)piperazin-1-yl]phenyl]-1H-imidazole-4-carboxamide], which IC50 [1] is on record?
A: 1 to 12 nM

Q: And the “Human Liver Microsome (μM/min/mg)” value [2]?
A: ++ (10-100 μM/min/mg as ++)
